Source: patent publication US9664696B1, “Compounds for determining the presence of hydrogen sulfide and methods of use” (University of Oregon, priority 2013, dated 2017)

Columns and labels:
[1] = pH 7.4
[2] = UV-vis titration of 100 with NaSH, absorbance of products; type: physicochemical; design: ε413: unit not given here; settings: PIPES buffer pH 7.4
[3] = pH titration of compound 42 monitored by UV-vis; type: physicochemical; settings: aqueous 100 mM KCl / 10 mM KOH solution titrated with HCl; absorbance at 534 nm as a function of pH; read-out: apparent pKa of the thiol
Procedure: A 15 mL solution of compound 42 (111 μM) in 100 mM KCl and 10 mM KOH Millipore water was prepared. The pH of the solution was adjusted with 10 M, 5 M, 1 M, 50 mM, or 1 mM solutions of HCl and the pH recorded. At each pH value, an aliquot of the solution was transferred to a cuvette and the UV-vis spectrum was measured. After measurement, the aliquot was returned to the stock solution and the pH was adjusted to the next point in the titration.

[4] = Colorimetric selectivity studies, H2S versus amino acids and RSONS
[5] = 1H NMR titration, 1:1 binding model, TBA-Val; settings: 10.0 mM probe, 0-200 mM amino acid, DMSO-d6, 25.0° C., average of three titrations
Procedure: (§1) A septum-sealed NMR tube was charged with either chemiluminescent compound precursor 200 or 202 (10 mM in 300 μL of DMSO-d6) and aliquots of a DMSO-d6 solution containing 200 mM amino acid mixed with 10 mM of the compound were added using a syringe. The chemical shifts of the aromatic proton resonances were tracked and the data were fitted to a 1:1 binding model.
^1H NMR titrations with tetrabutylammonium valine (TBA-Val) were also performed as a second model system in which the side chain of the amino acid cannot hydrogen bond to the azide. […] The binding affinities measured for TBA-Val are larger than for TBA-Ser (Table 9), which is consistent with the reduced internal competition for intramolecular hydrogen bonding sites in valine. Based on these titration data, and the lower hydrogen bonding ability of thiols by comparison to alcohols, binding affinity of cysteine for chemiluminescent compound precursor 200 and 202 was expected to be between the measured values for serine and valine. Under the general experimental conditions used to measure the selectivity date, a 10^3-10^4 M^−1 binding affinity between Cys/chemiluminescent compound precursor 200 would result in significant generation of the Cys/chemiluminescent compound precursor 200 adduct, which is consistent with the observed erosion in selectivity. […]

[6] = Chemiluminescent H2S detection limit (HRP/H2O2/p-iodophenol); settings: for chemiluminescent response after H2S-mediated reduction: followed by treatment with HRP and H2O2; for chemiluminescence in the absence of H2S: treatment with HRP and H2O2, by comparison to luminol or isoluminol
Procedure: (§2) In a septum-sealed cuvette, a solution of the compound (50 μM) and the desired reactive species was incubated in PIPES buffer (50 mM PIPES, 100 mM KCl, pH 7.4) for 60 minutes at 37.0° C. After incubation, 40 μL of 6 M NaOH was added to increase the pH to an optimal level for luminol chemiluminescence. After pH adjustment, 10 μL of 10 U/mL Horseradish Peroxidase (HRP) with 0.2 μM p-iodophenol was added. A background reading was acquired for 60 seconds, after which 50 μL of H2O2 (35%) was added. The sample luminosity at 425 nm was integrated for 300 s after H2O2 addition. The data reported are the average of at least three independent experiments.
In this particular embodiment, the use of a compound for a chemiluminescent testing method is disclosed.
Following the H2S-derived chemiluminescent response of both chemiluminescent compound precursor 200 and chemiluminescent compound precursor 202, the detection limit of each chemiluminescent compound precursor for H2S was determined. After incubating each chemiluminescent compound precursor for 1 hour for different H2S concentrations, the chemiluminescent response was measured after treatment with H2O2/HRP using p-iodophenol as an enhancer. […] Based on the concentration-dependent H2S response and the instrumental background measurements, the H2S detection limit (3σ) of chemiluminescent compound precursor 200 and chemiluminescent compound precursor 202 was determined to be 0.7±0.3 μM and 4.6±2.0 μM, respectively. Although the total brightness of chemiluminescent compound precursor 202 was lower than that of compound 200, both these detection limits were below the reported range of H2S concentrations (20 μM-100 μM) found in mammalian blood.

[7] = 1H NMR titration, 1:1 binding model, TBA-Ser; settings: 10.0 mM probe, 0-200 mM amino acid, DMSO-d6, 25.0° C., average of three titrations
Procedure: as §1
In addition to computational evidence for the hydrogen-bonding hypothesis, NMR titrations of chemiluminescent compound precursors 200 and 202 were also performed with different amino acids to further validate the model with solution data. Serine was used as a model amino acid because cysteine quickly reduces chemiluminescent compound precursor 200 under typical experimental conditions. […] Similarly, to model the protonation state of the amino acids in water, and also to ensure complete solubility through the course of the titration, the tetrabutylammonium salts of each amino acid were prepared. By titrating tetrabutylammonium serine (TBA-Ser) into independent solutions of chemiluminescent compound precursors 200 and 202, striking changes in the aromatic region of the NMR spectra were observed, consistent with amino acid binding to the hydrazide moiety (FIGS. 34A-34C). […]

[8] = Air sensitivity of the chemiluminescent compound precursors; type: physicochemical
[9] = Chemiluminescence selectivity for H2S over reactive sulfur, oxygen, and nitrogen species (RSONS); settings: for turn on for H2S: chemiluminescence, H2S versus blank
Procedure: as §2
The response of chemiluminescent compound precursor 200 and chemiluminescent compound precursor 202 to biologically-relevant reactive sulfur, oxygen, and nitrogen species (RSONS) was also determined. The selectivity of chemiluminescent compound precursor 200 for H2S was determined by adding 33 equivalents of cysteine (Cys), homocysteine (Hcy), N-acetylcysteine (NAC), reduced glutathione (GSH), thiosulfate (S2O3^2−), sulfate (SO4^2−), nitric oxide (NO), nitroxyl (HNO), and nitrite (NO2^−) (FIGS. 10 and 11). […]

[10] = biological target: cystathionine γ-lyase (CSE) (Homo sapiens, UniProt P32929); assay: Detection of enzymatically produced H2S from isolated CSE; type: biochemical
Procedure: (§3) In a septum sealed cuvette, the desired reactive species were incubated in PIPES buffer (50 mM PIPES, 100 mM KCl, pH 7.4) at 37.0° C. for 48 hours. After initial incubation, 15 μL of 10 mM chemiluminescent compound precursor 202 in DMSO was added, and allowed to react for 60 min. After incubation, 40 μL of 6 M NaOH was added to increase the pH to an optimal level for luminol chemiluminescence. After pH adjustment, 10 μL of 10 U/mL Horse-radish Peroxidase (HRP) with 0.2 μM p-iodophenol was added. A background reading was acquired for 60 s, after which 50 μL of H2O2 (35%) was added. The sample luminosity at 425 nm was integrated for 40 s after H2O2 addition. The data reported are the average of at least three independent experiments.
CSE is a PLP-dependent enzyme that converts Hcy or Cys to H2S and can be inhibited by β-cyano-L-alanine (BCA).

C6 cells = assay: Detection of endogenously produced H2S in C6 cell lysates; type: cell-based
Procedure: as §3
C6 cells were obtained from ATCC and cultured in Dulbecco's Modified Eagle Medium (DMEM, Cellgro, MediaTek, Inc.) supplemented with 10% fetal bovine serum (FBS, HyClone), and 1% penicillin/streptomycin. Cells were passed and plated into T-75 flasks containing 10 mL of DMEM, and incubated at 37° C. with 5% CO2. For luminescence studies, the cells were washed with 1× phosphate buffered saline (PBS), trypsinized with 5 mL of Trypsin, and then centrifuged to form a cell pellet. The cell pellet was resuspended in 5 mL of 1×PBS and the cells were counted using a Bio RAD TC20 automated cell counter. Cells were centrifuged at 1,000 RPM for 5 minutes at room temperature, placed on ice and lysed using 100 μL of RIPA buffer (pH 7.5 10 mM Tris-HCl, 150 mM NaCl, 1.0% Nonidet P-40, 0.1% SDS, 0.1% sodium deoxycholate) containing protease inhibitor (PhosSTOP, Roche) for every 2×10^6 cells in the pellet. Luminescence measurements on cell lysates were made using 100 μL of lysate solution (2×10^6 cells per experiment) under ambient atmosphere by following the general procedure for enzymatically produced H2S outlined above.
The ability of chemiluminescent compound precursor 202 to detect and quantify endogenously-produced H2S in C6 cells was determined.

[11] = 30 equivalents of H2S then added, 45 min
[12] = Reactant 2-mercaptoethanol (2-ME)
[13] = Reactant H2S, 33 equivalents, 50 μM compound, 60 min, 37.0° C., pH 7.4

Chain of cystathionine γ-lyase (CSE) (P32929 whole entry, species assumed): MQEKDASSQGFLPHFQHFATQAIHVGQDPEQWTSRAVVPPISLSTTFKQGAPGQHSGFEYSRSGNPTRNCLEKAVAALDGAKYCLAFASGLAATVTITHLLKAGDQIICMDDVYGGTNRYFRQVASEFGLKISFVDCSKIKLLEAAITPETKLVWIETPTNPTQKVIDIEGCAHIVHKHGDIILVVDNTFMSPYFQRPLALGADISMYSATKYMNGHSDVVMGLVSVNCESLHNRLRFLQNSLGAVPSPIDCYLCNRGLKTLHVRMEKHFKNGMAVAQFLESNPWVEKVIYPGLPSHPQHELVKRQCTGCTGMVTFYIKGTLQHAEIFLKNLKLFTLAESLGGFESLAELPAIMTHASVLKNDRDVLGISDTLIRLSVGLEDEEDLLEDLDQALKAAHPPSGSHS

SMILES | Binding Affinities [5] | Binding Affinities [7] | air sensitivity [8] | chemiluminescent response after H2S-mediated reduction [6] | chemiluminescence in the absence of H2S [6] | Normalized Luminescence (CL/CL0) [9, 12] | Normalized Luminescence (CL/CL0) ([9]; Reactant Cys) | Normalized Luminescence (CL/CL0) ([9]; Reactant GSH) | Normalized Luminescence (CL/CL0) [9, 13] | Normalized Luminescence (CL/CL0) ([9]; Reactant HNO) | Normalized Luminescence (CL/CL0) ([9]; Reactant Hcy) | Normalized Luminescence (CL/CL0) ([9]; Reactant NAC) | Normalized Luminescence (CL/CL0) ([9]; Reactant NO2) | Normalized Luminescence (CL/CL0) ([9]; Reactant ONOO^−) | Normalized Luminescence (CL/CL0) ([9]; Reactant S2O^2−) | Normalized Luminescence (CL/CL0) ([9]; Reactant SNAP (NO)) | Normalized Luminescence (CL/CL0) ([9]; Reactant SO4^2−) | turn on for H2S [9] | other results
Cc1cc(=O)oc2cc(N=[N+]=[N-])ccc12 [C-7Az, 7-azido-4-methylcoumarin] | – | – | – | – | – | – | – | – | – | – | – | – | – | – | – | – | – | – | photostability under continuous exposure [1]: probe photoactivation
O=[N+]([O-])c1ccc(Sc2ccc([N+](=O)[O-])c3nonc23)c2nonc12 [compound 40, bis(7-Nitrobenzo[c][1,2,5]oxadiazol-4-yl)sulfane] | – | – | – | – | – | – | – | – | – | – | – | – | – | – | – | – | – | – | ε413 ([2]; absorbance at 413 nm): 11,700±100
O=[N+]([O-])c1ccc(S)c2nonc12 [compound 42, 7-Nitrobenzo[c][1,2,5]oxadiazole-4-thiol] | – | – | – | – | – | – | – | – | – | – | – | – | – | – | – | – | – | – | ε534 ([2]; λmax 534 nm): 19,000±600 M^−1 cm^−1; pKa [3]: 2.6
O=[N+]([O-])c1ccc(Sc2ccc([N+](=O)[O-])c3nonc23)cc1 [compound 116, 4-Nitro-7-(4-nitrophenylthio)benzo[c][1,2,5]oxadiazole] | – | – | – | – | – | – | – | – | – | – | – | – | – | – | – | – | – | – | absorbance peak at 534 nm after initial incubation ([4]; 3 μM compound, 10 equivalents of H2S, glycine, serine, tyrosine, lysine, glutathione, N-acetyl-L-cysteine): only the H2S samples showed the characteristic absorbance peak at 534 nm; H2S response after incubation of GSH and N-acetylcysteine [4, 11]: somewhat eroded; colorimetric response to H2S after incubation with biological nucleophiles [4, 11]: robust colorimetric response to H2S

Now from value to molecule, other results behind:

Binding Affinities [5] | Binding Affinities [7] | air sensitivity [8] | SMILES | chemiluminescent response after H2S-mediated reduction [6] | chemiluminescence in the absence of H2S [6] | Normalized Luminescence (CL/CL0) [9, 12] | Normalized Luminescence (CL/CL0) ([9]; Reactant Cys) | Normalized Luminescence (CL/CL0) ([9]; Reactant GSH) | Normalized Luminescence (CL/CL0) [9, 13] | Normalized Luminescence (CL/CL0) ([9]; Reactant HNO) | Normalized Luminescence (CL/CL0) ([9]; Reactant Hcy) | Normalized Luminescence (CL/CL0) ([9]; Reactant NAC) | Normalized Luminescence (CL/CL0) ([9]; Reactant NO2) | Normalized Luminescence (CL/CL0) ([9]; Reactant ONOO^−) | Normalized Luminescence (CL/CL0) ([9]; Reactant S2O^2−) | Normalized Luminescence (CL/CL0) ([9]; Reactant SNAP (NO)) | Normalized Luminescence (CL/CL0) ([9]; Reactant SO4^2−) | turn on for H2S [9] | other results
3640 ± 270 M⁻¹ | 380 ± 80 M⁻¹ | not air-sensitive | [N-]=[N+]=Nc1cccc2c(=O)[nH][nH]c(=O)c12 [compound 200, 3-Azidophthalhydrazide] | robust chemiluminescent response | negligible chemiluminescence | 6.6 ± 3.2 | 81 ± 5 | 94 ± 12 | 128 ± 16 | 9.1 ± 0.2 | 57 ± 3 | 37 ± 19 | 0.9 ± 0.2 | 0.6 ± 0.2 | 5.9 ± 1.1 | 0.05 ± 0.01 | 0.8 ± 0.3 | 128 fold | –
3780 ± 370 M⁻¹ | 260 ± 60 M⁻¹ | not air-sensitive | [N-]=[N+]=Nc1ccc2c(=O)[nH][nH]c(=O)c2c1 [compound 202, 4-Azidophthalhydrazide] | robust chemiluminescent response | negligible chemiluminescence | 1.7 ± 0.08 | 1.5 ± 0.03 | 3.7 ± 0.9 | 45 ± 3 | 3.3 ± 0.2 | 3.3 ± 0.5 | 3.3 ± 0.4 | 3.2 ± 0.6 | 4.0 ± 0.2 | 2.2 ± 0.6 | 1.5 ± 0.5 | 1.5 ± 0.3 | 45 fold | chemiluminescent response with CSE in the absence of substrate [10]: no response; chemiluminescent response with CSE and Hcy substrate ([10]; by comparison to CSE alone (p<0.001) or CSE and Hcy inhibited with BCA (p<0.005)): robust response; chemiluminescent response to Hcy, BCA, pyruvate (Pyr) and NH3 ([10]; control experiments without CSE, p<0.005): negligible; Normalized Luminescence (CL/CL0) ([9]; Reactant Toluenethiol (TolSH)): 1.9 ± 0.4; luminescent response in C6 cell lysates lacking CSE substrates (C6 cells): minimal luminescent response; luminescence in C6 cell lysates with Hcy as CSE substrate (C6 cells; p<0.001 by comparison to lysates lacking substrate): significantly increased luminescence; luminescent response in C6 cell lysates with Hcy and BCA (C6 cells; p<0.005): abrogated the luminescent response
